Test results reported in publication PMC8637766, “A mixed chirality α-helix in a stapled bicyclic and a linear antimicrobial peptide revealed by X-ray crystallography” (RSC Chemical Biology, 2021).
≈ marks a conversion by molar mass, not a printed value. Peptide text beside a SMILES is read from it.

Assays:
P. aeruginosa PAO1 = format: cell-based, Pseudomonas aeruginosa
Experimental: (§1) Bicyclic and linear peptides cytotoxicity was assayed against P. aeruginosa PAO1, P. aeruginosa ZEM-1A, P. aeruginosa ZEM9A, K. pneumoniae Oxa-48, E. coli W3110, A. baumannii BAL225, S. aureus Newman, S. aureus COL (clinical isolate of MRSA) , B. Subtilis BR151.
(§2) To determine the Minimal Inhibitory Concentration (MIC), Broth Microdilution method was used . 2 A colony of bacteria from glycerol stock was grown in LB medium overnight at 37 °C and 180 rpm shaking. The compounds were prepared as stock solutions of 8 mg/mL in sterilized milliQ deionized water, added to the first well of 96 -well sterile, polypropylene round bottom microtiter plates (TPP, untreated) and diluted serially by ½. The concentration of the bacteria was quantified by measuring absorbance at 600 nm and diluted to an OD 600 of 0.022 in MH medium. The sample solutions (150 µL) were mixed with 4 µL diluted bacterial suspension with a final inoculation of about 5×10^5 CFU.
For each test, two columns of the plate were kept for sterility control (MH medium only), growth control (MH medium with bacterial inoculum, no compound). The positive control, Polymyxin B (starting with a concentration of 64 µg/mL) in MH medium with bacterial inoculums, was introduced in the two first lines of the plate. The plates were incubated at 37 °C for ~18 hours under static conditions. 15 μL of 3-(4,5-dimethylthiazol-2-yl)-2,5-diphenyltetrazolium bromide (MTT)3 (1 mg/mL in sterilized milliQ deionized water) were added to each well and the plates were incubated for 20-30 minutes at room temperature. The minimal inhibitory concentration (MIC) was defined as the lowest concentration of the dendrimer that inhibits the visible growth of the tested bacteria (yellow) with the unaided eye.

B. subtilis BR151 = format: cell-based, Bacillus subtilis; conditions: BR151, 20 h
Experimental: as §1, §2
For each test, two columns of the plate were kept for sterility control (MH medium only), growth control (MH medium with bacterial inoculum, no compound). The positive control, Polymyxin B (starting with a concentration of 64 µg/mL) in MH medium with bacterial inoculums, was introduced in the two first lines of the plate. […]
conditions. 15 μL of 3-(4,5-dimethylthiazol-2-yl)-2,5-diphenyltetrazolium bromide (MTT)3 (1 mg/mL in sterilized milliQ deionized water) were added to each well and the plates were incubated for 20-30 minutes at room temperature. The minimal inhibitory concentration (MIC) was defined as the lowest concentration of the dendrimer that inhibits the visible growth of the tested bacteria (yellow) with the unaided eye.

[1] = Lipid vesicle leakage assay, 5(6)-carboxyfluorescein release; conditions: for EYPC vesicle leakage / EYPG vesicle leakage: 10 μg mL^−1 compound, leakage at 250 s, 10 mM TRIS, 107 mM NaCl, pH 7.4, 25 °C, carboxyfluorescein fluorescence, Triton X-100 = full release
Experimental: 4 Lipid Vesicle Leakage assays
5(6)-carboxyfluorescein (CF) was purchased from Sigma. Egg Yolk Phosphatidylcholine (EYPC),
Egg Yolk Phosphatidylglycerol (EYPG) and a Mini-Extruder were purchased from Avanti Polar
Lipids. Egg PC or Egg PG thin lipid layers were prepared by evaporating a solution of 100 mg EYPC
or EYPG in 4 mL MeOH/CHCl3 (1:1) on a rotary evaporator at room temperature and then dried in
vacuo overnight. The resulting film was then hydrated with 4 mL CF buffer (50 mM CF, 10 mM
TRIS, 107 mM NaCl, pH 7.4) for 30 min, subjected to freeze-thaw cycles (7×) and extrusion (15×)
through a polycarbonate membrane (pore size 100 nm). Extra vesicular components were removed
by gel filtration (Sephadex G-50) with 10 mM TRIS, 107 mM NaCl, pH 7.4 buffer. Final conditions:
~ 2.5 mM PC or PG; inside: 50 mM CF, 10 mM TRIS, 10 mM NaCl, pH 7.4 buffer; outside: 10 mM
TRIS, 107 mM NaCl, pH 7.4. PC or PG stock solutions (37.5 µL) were diluted to 3000 µL with a
buffer (10 mM TRIS, 107 mM NaCl, pH 7.4) in a thermostated fluorescence cuvette (25 °C) and
gently stirred (final lipid concentration ~31 µM). CF efflux was monitored at λem 517 nm (λex 492
nm) as a function of time after addition of the desired volume of peptide (1 or 20 mg/mL stock in mQ
water) at t = 45 s. The following final concentrations of peptide were monitored: 5, 10, 15, 20, 25 and
200 µg/mL. Finally, 30 µL of 1.2% Triton X -100 was added to the cuvette (0.012% final
concentration) at t = 285 s to reach the maximum intensity. Fluorescence intensities were then
Figure S1: Vesicle leakage experiments using 5(6)-carboxyfluorescein induced by peptides. EYPG and EYPC vesicles
were suspended in buffer (10 mM TRIS, 107 mM NaCl, pH 7.4) and the indicated concentration of the compound was
added after 45 sec. After 285 seconds 30 μL Triton X-100 1.2% was added for full release of fluorescein. […]

SMILES	MIC PAO1 (P. aeruginosa PAO1) [µg/mL]	MIC BR 151 (B. subtilis BR151) [µg/mL]	other results
Cc1c2cc3cc1CSC[C@H](NC(=O)[C@H](CCCCN)NC(=O)[C@H](CC(C)C)NC(=O)[C@H](CC(C)C)NC(=O)[C@H](CCCCN)NC(=O)[C@H](CCCCN)NC3=O)C(=O)N[C@@H](CC(C)C)C(=O)N[C@@H](CCCCN)C(=O)N[C@H](C(=O)N[C@@H](CC(C)C)C(N)=O)CSC2 [bp3] (HELM PEPTIDE1{K.K.L.L.K.C.L.K.C.L.[am]}|CHEM1{[Cc1c(C[*:2])cc(C(=O)[*:1])cc1C[*:3]]}$PEPTIDE1,CHEM1,1:R1-1:R1|PEPTIDE1,CHEM1,6:R3-1:R2|PEPTIDE1,CHEM1,9:R3-1:R3$$$V2.0)	>64	4 (≈ 3.01 µM)	
Cc1c2cc3cc1CSC[C@H](NC(=O)[C@H](CCCCN)NC(=O)[C@H](CCCCN)NC(=O)[C@H](CC(C)C)NC(=O)[C@H](CC(C)C)NC(=O)[C@H](CCCCN)NC3=O)C(=O)N[C@@H](CC(C)C)C(=O)N[C@@H](CCCCN)C(=O)N[C@H](C(=O)N[C@@H](CC(C)C)C(N)=O)CSC2 [bp59] (HELM PEPTIDE1{K.L.L.K.K.C.L.K.C.L.[am]}|CHEM1{[Cc1c(C[*:2])cc(C(=O)[*:1])cc1C[*:3]]}$PEPTIDE1,CHEM1,1:R1-1:R1|PEPTIDE1,CHEM1,6:R3-1:R2|PEPTIDE1,CHEM1,9:R3-1:R3$$$V2.0)		4 (≈ 3.01 µM)	
Cc1c2cc3cc1CSC[C@H](NC(=O)[C@H](CC(C)C)NC(=O)[C@H](CCCCN)NC(=O)[C@H](CC(C)C)NC(=O)[C@H](CC(C)C)NC(=O)[C@H](CCCCN)NC3=O)C(=O)N[C@@H](CCCCN)C(=O)N[C@@H](CCCCN)C(=O)N[C@H](C(=O)N[C@@H](CC(C)C)C(N)=O)CSC2 [bp60] (HELM PEPTIDE1{K.L.L.K.L.C.K.K.C.L.[am]}|CHEM1{[Cc1c(C[*:2])cc(C(=O)[*:1])cc1C[*:3]]}$PEPTIDE1,CHEM1,1:R1-1:R1|PEPTIDE1,CHEM1,6:R3-1:R2|PEPTIDE1,CHEM1,9:R3-1:R3$$$V2.0)		> 64	
Cc1c2cc3cc1CSC[C@H](NC(=O)[C@H](CC(C)C)NC(=O)[C@H](CCCCN)NC(=O)[C@H](CCCCN)NC3=O)C(=O)N[C@@H](CCCCN)C(=O)N[C@@H](CC(C)C)C(=O)N[C@H](C(=O)N[C@@H](CCCCN)C(=O)N[C@@H](CC(C)C)C(N)=O)CSC2 [bp61] (HELM PEPTIDE1{K.K.L.C.K.L.C.K.L.[am]}|CHEM1{[Cc1c(C[*:2])cc(C(=O)[*:1])cc1C[*:3]]}$PEPTIDE1,CHEM1,1:R1-1:R1|PEPTIDE1,CHEM1,4:R3-1:R2|PEPTIDE1,CHEM1,7:R3-1:R3$$$V2.0)		> 64	

Continued, in another order:

MIC PAO1 (P. aeruginosa PAO1) [µg/mL]	MIC BR 151 (B. subtilis BR151) [µg/mL]	SMILES	other results
	32 (≈ 24 µM)	Cc1c2cc3cc1CSC[C@H](NC(=O)[C@H](CC(C)C)NC(=O)[C@H](CC(C)C)NC(=O)[C@H](CC(C)C)NC(=O)[C@H](CCCCN)NC(=O)[C@H](CCCCN)NC3=O)C(=O)N[C@@H](CCCCN)C(=O)N[C@@H](CC(C)C)C(=O)N[C@H](C(=O)N[C@@H](CCCCN)C(N)=O)CSC2 [bp62] (HELM PEPTIDE1{K.K.L.L.L.C.K.L.C.K.[am]}|CHEM1{[Cc1c(C[*:2])cc(C(=O)[*:1])cc1C[*:3]]}$PEPTIDE1,CHEM1,1:R1-1:R1|PEPTIDE1,CHEM1,6:R3-1:R2|PEPTIDE1,CHEM1,9:R3-1:R3$$$V2.0)	
	4 (≈ 3.01 µM)	Cc1c2cc3cc1CSC[C@H](NC(=O)[C@H](CC(C)C)NC(=O)[C@H](CCCCN)NC(=O)[C@H](CCCCN)NC3=O)C(=O)N[C@@H](CCCCN)C(=O)N[C@@H](CC(C)C)C(=O)N[C@@H](CC(C)C)C(=O)N[C@@H](CCCCN)C(=O)N[C@H](C(=O)N[C@@H](CC(C)C)C(N)=O)CSC2 [bp63] (HELM PEPTIDE1{K.K.L.C.K.L.L.K.C.L.[am]}|CHEM1{[Cc1c(C[*:2])cc(C(=O)[*:1])cc1C[*:3]]}$PEPTIDE1,CHEM1,1:R1-1:R1|PEPTIDE1,CHEM1,4:R3-1:R2|PEPTIDE1,CHEM1,9:R3-1:R3$$$V2.0)	
	16 (≈ 12 µM)	Cc1c2cc3cc1CSC[C@H](NC(=O)[C@H](CCCCN)NC(=O)[C@H](CC(C)C)NC(=O)[C@H](CC(C)C)NC(=O)[C@H](CCCCN)NC(=O)[C@H](CCCCN)NC3=O)C(=O)N[C@@H](CCCCN)C(=O)N[C@@H](CC(C)C)C(=O)N[C@H](C(=O)N[C@@H](CC(C)C)C(N)=O)CSC2 [bp64] (HELM PEPTIDE1{K.K.L.L.K.C.K.L.C.L.[am]}|CHEM1{[Cc1c(C[*:2])cc(C(=O)[*:1])cc1C[*:3]]}$PEPTIDE1,CHEM1,1:R1-1:R1|PEPTIDE1,CHEM1,6:R3-1:R2|PEPTIDE1,CHEM1,9:R3-1:R3$$$V2.0)	
	> 64	Cc1c2cc3cc1CSC[C@H](NC(=O)[C@H](CC(C)C)NC(=O)[C@H](CCCCN)NC(=O)[C@H](CCCCN)NC3=O)C(=O)N[C@@H](CCCCN)C(=O)N[C@@H](CC(C)C)C(=O)N[C@@H](CC(C)C)C(=O)N[C@@H](CCCCN)C(=O)N[C@H](C(N)=O)CSC2 [bp66] (HELM PEPTIDE1{K.K.L.C.K.L.L.K.C.[am]}|CHEM1{[Cc1c(C[*:2])cc(C(=O)[*:1])cc1C[*:3]]}$PEPTIDE1,CHEM1,1:R1-1:R1|PEPTIDE1,CHEM1,4:R3-1:R2|PEPTIDE1,CHEM1,9:R3-1:R3$$$V2.0)	
32 (≈ 22.2 µM)		Cc1c2cc3cc1CSC[C@H](C(=O)N[C@@H](CC(C)C)C(=O)N[C@H](CC(C)C)C(N)=O)NC(=O)[C@H](CCCCN)NC(=O)[C@@H](CC(C)C)NC(=O)[C@H](CSC2)NC(=O)[C@@H](CCCCN)NC(=O)[C@H](CC(C)C)NC(=O)[C@@H](CC(C)C)NC(=O)[C@H](CCCCN)NC(=O)[C@@H](CCCCN)NC3=O [bp67] (HELM PEPTIDE1{[dK].K.[dL].L.[dK].C.[dL].K.[dC].L.[dL].[am]}|CHEM1{[Cc1c(C[*:2])cc(C(=O)[*:1])cc1C[*:3]]}$PEPTIDE1,CHEM1,1:R1-1:R1|PEPTIDE1,CHEM1,6:R3-1:R2|PEPTIDE1,CHEM1,9:R3-1:R3$$$V2.0)	EYPC vesicle leakage [1]: 6%; EYPG vesicle leakage [1]: 48%; Leakage activity on EYPC vesicles, in words ([1]; zwitterionic EYPC vesicles mimicking eukaryotic membranes): very low leakage activity
16 (≈ 11.1 µM)		Cc1c2cc3cc1CSC[C@@H](NC(=O)[C@H](CCCCN)NC(=O)[C@H](CC(C)C)NC(=O)[C@H](CC(C)C)NC(=O)[C@H](CCCCN)NC(=O)[C@H](CCCCN)NC3=O)C(=O)N[C@@H](CC(C)C)C(=O)N[C@@H](CCCCN)C(=O)N[C@@H](C(=O)N[C@@H](CC(C)C)C(=O)N[C@@H](CC(C)C)C(N)=O)CSC2 [bp68] (HELM PEPTIDE1{K.K.L.L.K.[dC].L.K.[dC].L.L.[am]}|CHEM1{[Cc1c(C[*:2])cc(C(=O)[*:1])cc1C[*:3]]}$PEPTIDE1,CHEM1,1:R1-1:R1|PEPTIDE1,CHEM1,6:R3-1:R2|PEPTIDE1,CHEM1,9:R3-1:R3$$$V2.0)	EYPC vesicle leakage [1]: 18%; EYPG vesicle leakage [1]: 44%
